Measurements published in patent publication EP4799619A1, “COMPOUND TARGETING EGR-1 AND USE THEREOF FOR TREATMENT OF ATOPIC DERMATITIS” (AgeraMedi, Inc., priority 2023, dated 2025).

What was measured:
[1] = tested on: animal model of atopic dermatitis; assay: DNCB-induced animal model of atopic dermatitis, topical application; type: in vivo, BALB/c mice; settings: 0.1% applied to ear
IL-6 = assay: RT-PCR of EGR-1 target gene mRNA in TNFα-stimulated HaCaT cells: IL-6; type: cell-based, human; settings: 0, 5, 10, and 20 µM for 30 minutes, then TNFα 10 ng/mL for 12 hours, FIG. 14
Protocol: (§1) To determine whether the compounds of the present invention (Compounds 21, 23, and 25) inhibit expression of TSLP, IL-1β, and IL-6 genes, which are EGR-1 target genes playing a key role in atopic dermatitis exacerbation, the inhibitory effect of the compounds on mRNA expression of an EGR-1 target gene TSLP was evaluated by reverse transcription-polymerase chain reaction (RT-PCR) in HaCaT keratinocyte cells.
(§2) Specifically, HaCaT keratinocyte cells (purchased from Cell Lines Service, Eppelheim, Germany) were passaged at a seeding density of 1x10^6 cells per 100 mm cell culture dish in Dulbecco's modified Eagle's medium (Invitrogen Life Technologies) containing 10% fetal bovine serum (Invitrogen Life Technologies) and antibiotic-antifungal agent mix solution (Invitrogen Life Technologies), once every two days, and cultured at 37 °C in a 5% CO2 incubator.
(§3) HaCaT cells were treated with the compounds of the present invention (Compound 21, Compound 23, and Compound 25) at concentrations of 0, 5, 10, and 20 µM, respectively, for 30 minutes, followed by treatment with TNFα in a concentration of 10 ng/mL for 12 hours, after which the cells were harvested. Total RNA was extracted using TRIzol RNA isolation reagents (TRIzol Life Technologies Korea). A total of 0.5 µg of total RNA was reverse transcribed to synthesize complementary DNA (cDNA) according to the method recommended by the manufacturer using an iScript cDNA synthesis kit (Bio-Rad, Hercules, Calif., U.S.A.). PCR was performed using 0.0125 µg of double-stranded cDNA.
(§4) Glyceraldehyde-3-phosphate dehydrogenase (GAPDH), a housekeeping gene, was used as the control group. The double-stranded cDNA was denatured at 95 °C for 5 minutes and then subjected to cycles of reaction at 94 °C for 1 minute, 65 °C for 2 minutes, and 70 °C for 1 minute, repeated 30 times. The final product of PCR was electrophoresed on 1% agarose gel, stained with ethidium bromide (EtBr), and confirmed.

TSLP = assay: RT-PCR of EGR-1 target gene mRNA in TNFα-stimulated HaCaT cells: TSLP; type: cell-based, human; settings: 0, 5, 10, and 20 µM for 30 minutes, then TNFα 10 ng/mL for 12 hours, FIG. 14
Protocol: as §1, §2, §3, §4

EGR-1 [2] = target: T1, EGR-1 (Homo sapiens, UniProt P18146); assay: Electrophoretic mobility shift assay (EMSA) of EGR-1 DNA binding; design: made in house; host or cells: Sf21 insect cells (crude cell extract); settings: EGR-1 overexpressing Sf21 cell extract, biotin-labeled probe; FIG. 13
Protocol: When a nucleic acid and a protein are bound to each other, the complex of the nucleic acid and the protein moves more slowly than the nucleic acid alone, so that in an EMSA, a band of the nucleic acid bound to the protein appears higher than a band of only the nucleic acid.
In detail, the protein-DNA binding was analyzed by purchasing a LightShift Chemiluminescence EMSA kit (ThermoFisher Scientific, Waltham, MA, USA). The probe sequence for EGR-1 was synthesized by Macrogen company (Seoul, Korea) by ordering a deoxynucleotide labeled with biotin at the EGR-1 binding sequence (5'-biotin-AGAGTGTGTCTCCTTCGCACACATC-3'). The EGR-1 protein used in the experiment was an Sf21 insect cell extract overexpressing human EGR-1 protein as described in Yeo et al. [Journal of Investigative Dermatology 2021; 141:1851-1855]. Wild-type Sf21 cell extract was used as a negative control. After reacting 3 µg of EGR-1 overexpressing Sf21 cell extract, 1 µl of the compound of the present invention at a concentration of 20 mM, 50 fmol of the biotin-labeled EGR-1 binding deoxyoligonucleotide probe, and 1 µg poly(dI-dC) (Amersham Pharmacia Biotech Inc) for 20 minutes, electrophoresis was performed on a 6% non-denaturing polyacrylamide gel. The electrophoresed sample was transferred to a nylon membrane (Immobilon-Ny+ Transfer membrane, Millipore) and soaked in 5% skim milk solution for 30 minutes. Then, horseradish peroxidase-conjugated streptavidin was added and reacted for 15 minutes, and after washing unbound proteins from the membrane, the EGR-1-DNA complex was detected on X-ray film using an enhanced chemiluminescence (ECL) detection system (ThermoFisher Scientific). The intensity of the EGR-1-DNA complex band was analyzed using the ImageJ program (National Institute of Health, USA), and the intensity of the sample without the compound was set to 100%, and relative intensities were measured.

EGR-1 [3] = target: T1, EGR-1; assay: EGR-1 DNA binding activity assay (EDBA); design: made in house; settings: EGR-1 DNA binding inhibitory activity; EGR-1 overexpressing cell lysate; absorbance at 450 nm; compound concentration not given
Summary of the method: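 Compound pre-incubated 30 min at room temperature with EGR-1-overexpressing cell lysate (10 mM Tris pH 7.5, 50 mM KCl, 2% BSA, 8% glycerol), then 1 h on avidin-immobilised biotin-EBS duplex DNA. Bound EGR-1 detected by antibody ELISA with HRP/TMB at 450 nm; % inhibition versus lysate-only wells.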

IL-1β = assay: RT-PCR of EGR-1 target gene mRNA in TNFα-stimulated HaCaT cells: IL-1β; type: cell-based, human; settings: 0, 5, 10, and 20 µM for 30 minutes, then TNFα 10 ng/mL for 12 hours, FIG. 14
Protocol: as §1, §2, §3, §4

T1 sequence (P18146 whole entry): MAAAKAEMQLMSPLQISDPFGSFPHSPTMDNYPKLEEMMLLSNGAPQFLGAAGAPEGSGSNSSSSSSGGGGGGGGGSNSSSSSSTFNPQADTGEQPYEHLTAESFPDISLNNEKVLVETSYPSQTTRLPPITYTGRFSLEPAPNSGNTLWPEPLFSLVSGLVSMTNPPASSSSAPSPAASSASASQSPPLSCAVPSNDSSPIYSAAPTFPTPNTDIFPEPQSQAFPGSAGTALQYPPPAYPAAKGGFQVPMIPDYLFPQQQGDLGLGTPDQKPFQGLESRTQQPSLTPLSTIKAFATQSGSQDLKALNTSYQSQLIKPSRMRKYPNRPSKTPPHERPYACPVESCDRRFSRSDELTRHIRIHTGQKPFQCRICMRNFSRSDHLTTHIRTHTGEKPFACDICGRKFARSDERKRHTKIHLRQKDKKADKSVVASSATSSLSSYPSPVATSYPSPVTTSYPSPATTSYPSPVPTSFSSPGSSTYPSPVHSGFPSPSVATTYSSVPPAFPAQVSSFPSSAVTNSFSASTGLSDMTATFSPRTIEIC

COc1ccc2c(c1)NC(=O)/C2=N\NC(=S)Nc1cccc([N+](=O)[O-])c1 [Compound 23, (Z)-2-(6-methoxy-2-oxoindolin-3-ylidene)-N-(3-nitrophenyl)hydrazin-1-carbothioamide]
epidermal thickness ([1]; day 22, H&E staining, normal 24.47±2.353, DNCB only 37.27±4.393): 22.92±3.617 µm | dermal thickness ([1]; day 22, H&E staining, normal 143.2±19.61, DNCB only 197.5±17.83): 147.5±8.302 µm | macroscopic skin condition ([1]; day 22, FIG. 15B): significant improvement in skin condition | expression of filaggrin ([1]; immunofluorescence of skin tissue, FIG. 17B): recovered to a level similar to normal tissue | expression of TSLP ([1]; immunofluorescence of skin tissue, compared to positive control group, FIG. 17A): significantly decreased | expression of MPO (neutrophil marker) ([1]; immunohistochemistry, FIG. 16C): decreased similar to normal tissue | expression of F4/80 (macrophage marker) ([1]; immunohistochemistry, FIG. 16D): decreased similar to normal tissue | mast cell infiltration ([1]; toluidine blue staining, compared to the positive control group, FIG. 16A): significantly reduced | number of mast cells infiltrated ([1]; toluidine blue staining, normal 11±3, DNCB 38±6): 19±5 per 2.5 cm^2 | expression level of IL-6 mRNA (IL-6): decreased dose-dependently | expression level of TSLP mRNA (TSLP): decreased dose-dependently | DNA binding of EGR-1 (EGR-1-DNA complex band) (EGR-1 [2]): inhibited DNA binding of EGR-1 in a concentration-dependent manner | Inhibition Rate (%) (EGR-1 [3]): 67.63% | expression level of IL-1β mRNA (IL-1β): decreased dose-dependently
